In patent US20250361234A1 (NICO THERAPEUTICS, INC., priority 2022, published 2025):

Target: T1, full-length SARM1 (FL-SARM1) (Homo sapiens, UniProt Q6SZW1)
T1 sequence (Q6SZW1 28-724): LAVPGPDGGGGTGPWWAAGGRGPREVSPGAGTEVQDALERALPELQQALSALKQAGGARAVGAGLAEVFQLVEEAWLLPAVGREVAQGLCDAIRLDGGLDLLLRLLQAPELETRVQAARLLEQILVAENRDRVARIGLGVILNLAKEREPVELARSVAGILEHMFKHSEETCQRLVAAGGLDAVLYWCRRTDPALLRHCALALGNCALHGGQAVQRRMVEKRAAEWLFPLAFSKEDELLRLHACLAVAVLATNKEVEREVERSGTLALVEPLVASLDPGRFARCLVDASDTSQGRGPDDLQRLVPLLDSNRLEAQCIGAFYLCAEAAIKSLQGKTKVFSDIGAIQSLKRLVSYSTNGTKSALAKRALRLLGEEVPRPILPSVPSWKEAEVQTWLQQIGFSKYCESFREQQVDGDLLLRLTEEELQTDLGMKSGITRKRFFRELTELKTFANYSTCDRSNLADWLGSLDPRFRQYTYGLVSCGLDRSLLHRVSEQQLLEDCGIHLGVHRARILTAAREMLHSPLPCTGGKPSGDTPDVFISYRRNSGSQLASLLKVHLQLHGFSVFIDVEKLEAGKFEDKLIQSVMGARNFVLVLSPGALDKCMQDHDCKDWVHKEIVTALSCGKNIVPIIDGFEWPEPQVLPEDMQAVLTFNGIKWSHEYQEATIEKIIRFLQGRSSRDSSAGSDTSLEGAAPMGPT
Assay: FL-SARM1 cellular lysate assay (NAD/NADH-Glo readout of remaining NAD+)
Conditions: SARM1 cellular lysate from transfected HEK293T cells, NAD+ and NMN, 11 point curve

Row | Structure (SMILES) | IC50 (Activity (μM)) [µM] | IC50 (Activity) [µM]
1 | C[C@@H]1CC2C[C@@H](C1)N2C(=O)Nc1ccc(Cl)c(-c2cncc(F)c2)c1 (single isomer, unassigned) [Example 79, trans-N-(4-chloro-3-(5-fluoropyridin-3-yl)phenyl)-3-methyl-6-azabicyclo[3.1.1]heptane-6-carboxamide] | 0.1 | 0.0001 to 1
2 | Cc1ccc(NC(=O)N2C3CCCC2(C(=O)N2CCCC2)C3)cc1-c1cncc(F)c1 (stereo not drawn) [Example 93, N-[3-(5-fluoropyridin-3-yl)-4-methylphenyl]-1-(pyrrolidine-1-carbonyl)-6-azabicyclo[3.1.1]heptane-6-carboxamide] | 4.4 | 1 to 10
3 | COC(=O)[C@H]1C[C@@H]2C[C@H](C1)N2C(=O)Nc1ccc(C)c(-c2cncc(F)c2)c1 (single isomer, unassigned) [Example 12, trans-methyl 6-((3-(5-fluoropyridin-3-yl)-4-methylphenyl)carbamoyl)-6-azabicyclo[3.1.1]heptane-3-carboxylate] | 3.7 | 1 to 10
4 | Cc1ccc(NC(=O)N2C3CCCC2C3)cc1-c1cccnc1C#N [Example 61, N-[3-(2-cyanopyridin-3-yl)-4-methylphenyl]-6-azabicyclo[3.1.1]heptane-6-carboxamide] | 0.8 | 0.0001 to 1
5 | C[C@@H]1CC2C[C@@H](C1)N2C(=O)Nc1ccc(F)c(-c2cncc(F)c2)c1 (single isomer, unassigned) [Example 57, trans-N-(4-fluoro-3-(5-fluoropyridin-3-yl)phenyl)-3-methyl-6-azabicyclo[3.1.1]heptane-6-carboxamide] | 0.3 | 0.0001 to 1
6 | Cc1ccc(NC(=O)N2C3C[C@@H]2C[C@@](C)(C#N)C3)cc1-c1cncc(F)c1 (stereo in doubt) [Example 43, cis-3-cyano-N-(3-(5-fluoropyridin-3-yl)-4-methylphenyl)-3-methyl-6-azabicyclo[3.1.1]heptane-6-carboxamide] | 0.5 | 0.0001 to 1
7 | Cc1ccc(NC(=O)N2C3C[C@H]2C[C@H](n2cccn2)C3)cc1-c1cncc(F)c1 [Example 6, trans-N-(3-(5-fluoropyridin-3-yl)-4-methylphenyl)-3-(1H-pyrazol-1-yl)-6-azabicyclo[3.1.1]heptane-6-carboxamide] | 6.6 | 1 to 10
8 | COC(=O)[C@H]1CC2C[C@@H](C1)N2C(=O)Nc1ccc(C)c(-c2cncc(F)c2)c1 (single isomer, unassigned) [Example 13, cis-methyl 6-((3-(5-fluoropyridin-3-yl)-4-methylphenyl)carbamoyl)-6-azabicyclo[3.1.1]heptane-3-carboxylate] | 3.4 | 1 to 10
9 | Cc1ccc(NC(=O)N2C3CCCC2C3)cc1-c1ccnnc1 [Example 63] | 25.9 | > 10
10 | CCc1ccc(NC(=O)N2[C@@H]3C[C@@H](C)C[C@H]2C3)cc1-c1cncc(F)c1 [Example 82, cis-N-(4-ethyl-3-(5-fluoropyridin-3-yl)phenyl)-3-methyl-6-azabicyclo[3.1.1]heptane-6-carboxamide] | 0.02 | 0.0001 to 1
11 | Cc1ccc(NC(=O)N2C3CCC2COC3)cc1-c1cncc(F)c1 [Example 94, N-[3-(5-fluoropyridin-3-yl)-4-methylphenyl]-3-oxa-8-azabicyclo[3.2.1]octane-8-carboxamide] | 2.8 | 1 to 10
12 | Cc1ccc(NC(=O)N2C3C[C@H](C#N)C[C@@H]2C3)cc1-c1cncc(F)c1 [Example 49, cis-3-cyano-N-(3-(5-fluoropyridin-3-yl)-4-methylphenyl)-6-azabicyclo[3.1.1]heptane-6-carboxamide] | 0.4 | 0.0001 to 1
13 | O=C(Nc1ccc(Cl)c(-c2cncc(F)c2)c1)N1C2C[C@H](OC(F)F)C[C@H]1C2 [Example 55, trans-N-(4-chloro-3-(5-fluoropyridin-3-yl)phenyl)-3-(difluoromethoxy)-6-azabicyclo[3.1.1]heptane-6-carboxamide] | 0.3 | 0.0001 to 1
14 | Cc1ccc(NC(=O)N2C3CCCC2C3)cc1-c1cncc(C(F)(F)F)c1 [Example 116, N-[4-methyl-3-[5-(trifluoromethyl)pyridin-3-yl]phenyl]-6-azabicyclo[3.1.1]heptane-6-carboxamide] | 0.1 | 0.0001 to 1
15 | CO[C@H]1CC2C[C@H](C1)N2C(=O)Nc1cc(-c2cncc(F)c2)c(C)cc1F [Example 3, trans-N-(2-fluoro-5-(5-fluoropyridin-3-yl)-4-methylphenyl)-3-methoxy-6-azabicyclo[3.1.1]heptane-6-carboxamide] | 2.5 | 1 to 10
16 | Cc1ccc(NC(=O)N2CCOc3cccc(C#N)c3C2)cc1-c1cncc(F)c1 [Example 81] | 5.6 | 1 to 10
17 | COc1ccc(-c2cc(NC(=O)N3C4CCCC3C4)ccc2C)cn1 [Example 67, N-(3-(6-methoxypyridin-3-yl)-4-methylphenyl)-6-azabicyclo[3.1.1]heptane-6-carboxamide] | 0.4 | 0.0001 to 1
18 | Cc1ccc(NC(=O)OC2CCC2)cc1-c1cccnc1 [Example 129, cyclobutyl N-(4-methyl-3-pyridin-3-ylphenyl)carbamate] | 30.9 | > 10
19 | Cc1ccc(NC(=O)N2C3CCCC2C3)cc1-c1cncc(F)c1C [Example 92, N-(3-(5-fluoro-4-methylpyridin-3-yl)-4-methylphenyl)-6-azabicyclo[3.1.1]heptane-6-carboxamide] | 0.5 | 0.0001 to 1
20 | Cc1ccc(NC(=O)N2C3CCCC2C3)cc1-c1cnc(C)c(F)c1 [Example 89, N-(3-(5-fluoro-6-methylpyridin-3-yl)-4-methylphenyl)-6-azabicyclo[3.1.1]heptane-6-carboxamide] | 0.4 | 0.0001 to 1
21 | Cc1nnc([C@]23C[C@H](C)C[C@H](C2)N3C(=O)Nc2cc(-c3cncc(F)c3)c(C(F)(F)F)cc2F)o1 (single isomer, unassigned) [Example 135, cis-N-[2-fluoro-5-(5-fluoro-3-pyridinyl)-4-(trifluoromethyl)phenyl]-3-methyl-1-(5-methyl-1,3,4-oxadiazol-2-yl)-6-azabicyclo[3.1.1]heptane-6-carboxamide] | 0.03 | 0.0001 to 1
22 | Cc1ccc(NC(=O)N2C3CCCC2C3)cc1-c1cncc(OC(F)F)c1 [Example 48, N-(3-(5-(difluoromethoxy)pyridin-3-yl)-4-methylphenyl)-6-azabicyclo[3.1.1]heptane-6-carboxamide] | 0.1 | 0.0001 to 1
23 | Cc1ccc(NC(=O)N2C3C[C@H]2C[C@@H](C(C)(C)O)C3)cc1-c1cncc(F)c1 [Example 9, cis-N-(3-(5-fluoropyridin-3-yl)-4-methylphenyl)-3-(2-hydroxypropan-2-yl)-6-azabicyclo[3.1.1]heptane-6-carboxamide] | 4.2 | 1 to 10
24 | Cc1ccc(NC(=O)N2C3CC[C@H](C(=O)N(C)C)[C@@H]2C3)cc1-c1cncc(F)c1 [Example 33, cis-N^6-(3-(5-fluoropyridin-3-yl)-4-methylphenyl)-N^2,N^2-dimethyl-6-azabicyclo[3.1.1]heptane-2,6-dicarboxamide] | 32.9 | > 10
25 | Cc1ccc(NC(=O)CC2CCC2)cc1-c1cccnc1 [Example 114, 2-cyclobutyl-N-(4-methyl-3-pyridin-3-ylphenyl)acetamide] | 4.3 | 1 to 10
26 | Cc1ccc(NC(=O)N2CC3CC2c2ccccc23)cc1-c1cncc(F)c1 (stereo not drawn) [Example 95, N-[3-(5-fluoropyridin-3-yl)-4-methylphenyl]-9-azatricyclo[6.2.1.02,7]undeca-2,4,6-triene-9-carboxamide] | 0.2 | 0.0001 to 1
27 | Cc1ccc(NC(=O)[C@H]2C[C@@](C#N)(C3CC3)C2)cc1-c1cncc(F)c1 [Example 106, trans-3-cyano-3-cyclopropyl-N-[3-(5-fluoropyridin-3-yl)-4-methylphenyl]cyclobutane-1-carboxamide] | 0.6 | 0.0001 to 1
28 | Cc1ccc(NC(=O)N2C3CC(=O)CC2C3)cc1-c1cncc(F)c1 [Example 38, N-(3-(5-fluoropyridin-3-yl)-4-methylphenyl)-3-oxo-6-azabicyclo[3.1.1]heptane-6-carboxamide] | 2.3 | 1 to 10
29 | Cc1ccc(NC(=O)N2CCCCC2C)cc1-c1cncc(F)c1 (racemic) [Example 32, N-(3-(5-fluoropyridin-3-yl)-4-methylphenyl)-2-methylpiperidine-1-carboxamide] | 1.9 | 1 to 10
30 | Cc1ccc(NC(=O)N2C3CC[C@H](C#N)[C@@H]2C3)cc1-c1cncc(F)c1 [Example 30, cis-2-cyano-N-(3-(5-fluoropyridin-3-yl)-4-methylphenyl)-6-azabicyclo[3.1.1]heptane-6-carboxamide] | 5.5 | 1 to 10
